Measured values: patent US20250171430A1, “PYRAZOLYL COMPOUNDS AS KV7 CHANNEL ACTIVATORS” (Biohaven Therapeutics Ltd., priority 2022, published 2025)

Target: T1, Kv7.2/7.3 (Homo sapiens, UniProt O43525+O43526)
T1 construct: Kv7.2 tetracycline-induced, Kv7.3 constitutive
Assay: Kv7.2/7.3 Activation Assay (Thallium Flux Assay)
Assay type: cell-based
Conditions: hKV7.2/7.3 cell line; test compound at single concentration of 10 μM; fluorescence at 90 sec normalized to positive control (retigabine, 30 μM)
In short: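 Single-point activity at 10 μM (0.1% DMSO, HEPES-buffered saline, pH 7.4) was scored from fluorescence at 90 s relative to 30 μM retigabine. Categories were none <0.15, moderate 0.15-0.7 and high >0.7. Thallium influx after stimulus addition was followed with FluxOR II Green dye in hKv7.2/7.3 cells, Kv7.2 expressed under overnight tetracycline (10 ng/mL) induction.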

Row | SMILES | Kv7.2/7.3 Activity
1 | Cn1nc(NC(=O)C[C@H]2CC2(C)C)c(C2CCC2)c1-c1ccc(F)cc1 [Compound 100, (R)-N-(4-cyclobutyl-5-(4-fluorophenyl)-1-methyl-1H-pyrazol-3-yl)-2-(2,2-dimethylcyclopropyl)acetamide] | ++ (“++” High Activity ≥ 0.7)
2 | Cn1nc(NC(=O)CCC(F)(F)C(F)(F)F)c(C2CCC2)c1-c1ccc(F)cc1 [Compound 101, N-(4-cyclobutyl-5-(4-fluorophenyl)-1-methyl-1H-pyrazol-3-yl)-4,4,5,5,5-pentafluoropentanamide] | ++ (“++” High Activity ≥ 0.7)
3 | Cn1nc(NC(=O)CC2CCCC2)c(C2CCC2)c1-c1ccc(F)cc1 [Compound 102, N-(4-cyclobutyl-5-(4-fluorophenyl)-1-methyl-1H-pyrazol-3-yl)-2-cyclopentylacetamide] | ++ (“++” High Activity ≥ 0.7)
4 | Cn1nc(NC(=O)C2(c3ccccc3)CC2)c(C2CCC2)c1-c1ccc(F)cc1 [Compound 103, N-(4-cyclobutyl-5-(4-fluorophenyl)-1-methyl-1H-pyrazol-3-yl)-1-phenylcyclopropane-1-carboxamide] | + (“+” Moderate Activity 0.15-0.7)
5 | CC[C@H](C)CC(=O)Nc1nn(C)c(-c2ccc(F)cc2)c1C1CCC1 [Compound 104, (S)-N-(4-cyclobutyl-5-(4-fluorophenyl)-1-methyl-1H-pyrazol-3-yl)-3-methylpentanamide] | ++ (“++” High Activity ≥ 0.7)
6 | Cn1nc(NC(=O)CC2(C(F)(F)F)CC2)c(C2CCC2)c1-c1ccccc1F [Compound 105, N-(4-cyclobutyl-5-(2-fluorophenyl)-1-methyl-1H-pyrazol-3-yl)-2-(1-(trifluoromethyl)cyclopropyl)acetamide] | ++ (“++” High Activity ≥ 0.7)
7 | Cn1nc(NC(=O)CC2CC(F)(F)C2)c(C2CCC2)c1-c1ccccc1F [Compound 106, N-(4-cyclobutyl-5-(2-fluorophenyl)-1-methyl-1H-pyrazol-3-yl)-2-(3,3-difluorocyclobutyl)acetamide] | ++ (“++” High Activity ≥ 0.7)
8 | Cn1nc(NC(=O)CC2(C(F)(F)F)CC2)c(C2CCC2)c1-c1ccc(F)cc1F [Compound 107, N-(4-cyclobutyl-5-(2,4-difluorophenyl)-1-methyl-1H-pyrazol-3-yl)-2-(1-(trifluoromethyl)cyclopropyl)acetamide] | ++ (“++” High Activity ≥ 0.7)
9 | Cn1nc(NC(=O)COC(C)(C)C)c(C2CCC2)c1-c1ccc(F)cc1 [Compound 108, 2-(tert-butoxy)-N-(4-cyclobutyl-5-(4-fluorophenyl)-1-methyl-1H-pyrazol-3-yl)acetamide] | + (“+” Moderate Activity 0.15-0.7)
10 | Cn1nc(NC(=O)CC(C(F)(F)F)C(F)(F)F)c(C2CCC2)c1-c1ccc(F)cc1 [Compound 109, N-(4-cyclobutyl-5-(4-fluorophenyl)-1-methyl-1H-pyrazol-3-yl)-4,4,4-trifluoro-3-(trifluoromethyl)butanamide] | ++ (“++” High Activity ≥ 0.7)
11 | Cn1nc(NC(=O)[C@H]2CC2(C)C)c(C2CCC2)c1-c1ccc(F)cc1 [Compound 110, (S)-N-(4-cyclobutyl-5-(4-fluorophenyl)-1-methyl-1H-pyrazol-3-yl)-2,2-dimethylcyclopropane-1-carboxamide] | ++ (“++” High Activity ≥ 0.7)
12 | Cn1nc(NC(=O)[C@H]2C[C@]2(C)C(F)F)c(C2CCC2)c1-c1ccc(F)cc1 [Compound 111, (1S,2S)-N-(4-cyclobutyl-5-(4-fluorophenyl)-1-methyl-1H-pyrazol-3-yl)-2-(difluoromethyl)-2-methylcyclopropane-1-carboxamide] | ++ (“++” High Activity ≥ 0.7)
13 | Cn1nc(NC(=O)[C@H]2C[C@@]2(C)C(F)F)c(C2CCC2)c1-c1ccc(F)cc1 [Compound 112, (1S,2R)-N-(4-cyclobutyl-5-(4-fluorophenyl)-1-methyl-1H-pyrazol-3-yl)-2-(difluoromethyl)-2-methylcyclopropane-1-carboxamide] | ++ (“++” High Activity ≥ 0.7)
14 | C[C@H](C(=O)Nc1nn(C)c(-c2ccc(F)cc2)c1C1CCC1)C(C)(C)C [Compound 113, (S)-N-(4-cyclobutyl-5-(4-fluorophenyl)-1-methyl-1H-pyrazol-3-yl)-2,3,3-trimethylbutanamide] | ++ (“++” High Activity ≥ 0.7)
15 | C[C@@H](C(=O)Nc1nn(C)c(-c2ccc(F)cc2)c1C1CCC1)C(C)(C)C [Compound 114, (R)-N-(4-cyclobutyl-5-(4-fluorophenyl)-1-methyl-1H-pyrazol-3-yl)-2,3,3-trimethylbutanamide] | ++ (“++” High Activity ≥ 0.7)
16 | Cn1nc(NC(=O)C[C@H](O)C(C)(C)C)c(C2CCC2)c1-c1ccc(F)cc1 [Compound 115, (S)-N-(4-cyclobutyl-5-(4-fluorophenyl)-1-methyl-1H-pyrazol-3-yl)-3-hydroxy-4,4-dimethylpentanamide] | + (“+” Moderate Activity 0.15-0.7)
17 | Cn1nc(NC(=O)C[C@](C)(O)C2CC(F)(F)C2)c(C2CCC2)c1-c1ccc(F)cc1 [Compound 116, (S)-N-(4-cyclobutyl-5-(4-fluorophenyl)-1-methyl-1H-pyrazol-3-yl)-3-(3,3-difluorocyclobutyl)-3-hydroxybutanamide] | + (“+” Moderate Activity 0.15-0.7)
18 | Cn1nc(NC(=O)C(F)(F)C(C)(O)c2ccccc2)c(C2CCC2)c1-c1ccc(F)cc1 (stereo not drawn) [Compound 117, N-(4-cyclobutyl-5-(4-fluorophenyl)-1-methyl-1H-pyrazol-3-yl)-2,2-difluoro-3-hydroxy-3-phenylbutanamide] | ++ (“++” High Activity ≥ 0.7)
19 | Cn1nc(NC(=O)[C@H]2C[C@@H](C(F)(F)F)C2)c(C2CCC2)c1-c1ccc(F)cc1 [Compound 118, (1S,3S)-N-(4-cyclobutyl-5-(4-fluorophenyl)-1-methyl-1H-pyrazol-3-yl)-3-(trifluoromethyl)cyclobutane-1-carboxamide] | ++ (“++” High Activity ≥ 0.7)
20 | Cn1nc(NC(=O)[C@H]2C[C@H](C(F)(F)F)C2)c(C2CCC2)c1-c1ccc(F)cc1 [Compound 119, (1R,3R)-N-(4-cyclobutyl-5-(4-fluorophenyl)-1-methyl-1H-pyrazol-3-yl)-3-(trifluoromethyl)cyclobutane-1-carboxamide] | ++ (“++” High Activity ≥ 0.7)
21 | Cn1nc(NC(=O)[C@@H]2CCC(F)(F)C2)c(C2CCC2)c1-c1ccc(F)cc1 [Compound 120, (R)-N-(4-cyclobutyl-5-(4-fluorophenyl)-1-methyl-1H-pyrazol-3-yl)-3,3-difluorocyclopentane-1-carboxamide] | ++ (“++” High Activity ≥ 0.7)
22 | Cn1nc(NC(=O)C2CC(C)(C)C2)c(C2CCC2)c1-c1ccc(F)cc1 [Compound 121, N-(4-cyclobutyl-5-(4-fluorophenyl)-1-methyl-1H-pyrazol-3-yl)-3,3-dimethylcyclobutane-1-carboxamide] | ++ (“++” High Activity ≥ 0.7)
23 | Cn1nc(NC(=O)[C@H]2C[C@@H](C)C2)c(C2CCC2)c1-c1ccc(F)cc1 [Compound 122, (1S,3S)-N-(4-cyclobutyl-5-(4-fluorophenyl)-1-methyl-1H-pyrazol-3-yl)-3-methylcyclobutane-1-carboxamide] | ++ (“++” High Activity ≥ 0.7)
24 | Cn1nc(NC(=O)[C@H]2C[C@H](C)C2)c(C2CCC2)c1-c1ccc(F)cc1 [Compound 123, (1R,3R)-N-(4-cyclobutyl-5-(4-fluorophenyl)-1-methyl-1H-pyrazol-3-yl)-3-methylcyclobutane-1-carboxamide] | ++ (“++” High Activity ≥ 0.7)
25 | Cn1nc(NC(=O)C2(C(F)(F)F)CCC2)c(C2CCC2)c1-c1ccc(F)cc1 [Compound 124, N-(4-cyclobutyl-5-(4-fluorophenyl)-1-methyl-1H-pyrazol-3-yl)-1-(trifluoromethyl)cyclobutane-1-carboxamide] | + (“+” Moderate Activity 0.15-0.7)
26 | Cn1nc(NC(=O)C2CC(F)(F)C2)c(C2CCC2)c1-c1ccc(F)cc1 [Compound 125, N-(4-cyclobutyl-5-(4-fluorophenyl)-1-methyl-1H-pyrazol-3-yl)-3,3-difluorocyclobutane-1-carboxamide] | ++ (“++” High Activity ≥ 0.7)
27 | Cn1nc(NC(=O)C2(C(F)(F)F)CC2)c(C2CCC2)c1-c1ccc(F)cc1 [Compound 126, N-(4-cyclobutyl-5-(4-fluorophenyl)-1-methyl-1H-pyrazol-3-yl)-1-(trifluoromethyl)cyclopropane-1-carboxamide] | ++ (“++” High Activity ≥ 0.7)
28 | C[C@H](C(=O)Nc1nn(C)c(-c2ccc(F)cc2)c1C1CCC1)C1(C(F)(F)F)CC1 [Compound 127, (S)-N-(4-cyclobutyl-5-(4-fluorophenyl)-1-methyl-1H-pyrazol-3-yl)-2-(1-(trifluoromethyl)cyclopropyl)propanamide] | ++ (“++” High Activity ≥ 0.7)
29 | C[C@@H](C(=O)Nc1nn(C)c(-c2ccc(F)cc2)c1C1CCC1)C1(C(F)(F)F)CC1 [Compound 128, (R)-N-(4-cyclobutyl-5-(4-fluorophenyl)-1-methyl-1H-pyrazol-3-yl)-2-(1-(trifluoromethyl)cyclopropyl)propanamide] | ++ (“++” High Activity ≥ 0.7)
30 | C[C@H](C(=O)Nc1nn(C)c(-c2ccc(F)cc2)c1C1CCC1)C1CC(F)(F)C1 [Compound 129, (S)-N-(4-cyclobutyl-5-(4-fluorophenyl)-1-methyl-1H-pyrazol-3-yl)-2-(3,3-difluorocyclobutyl)propanamide] | ++ (“++” High Activity ≥ 0.7)
